Results on 4 molecules are retold here after paper PMC9700728 (Nature Communications, 2022).

The target of assay [1] is human thrombopoietin receptor MPL on Ba/F3-HuMpl cells (human) (UniProt P40238).
Another assay has as its target T1, BC2L-C-CTD (Burkholderia cenocepacia, UniProt B4EH86).
T1 construct: gene BCAM0185; C-terminal domain of BC2L-C, N-terminal 6xHis-tag (modified pET28), expressed in E. coli BL21(DE3)
Kind of assay: isothermal titration calorimetry. The class given is binding. Particulars: 20 mM HEPES-NaOH pH 8.0, 200 mM NaCl, 25 °C. An excerpt: isothermal titration calorimetry on BC2L-C-CTD | BC2L-C-CTD bound only to mannose

For assay [2], the target named is T2, rThC (recombinant thrombocorticin, ThC) (unclassified Corticium (in: sponges), UniProt C0HM62).
T2 construct: N-terminal 6xHis-tag (modified pET28), expressed in E. coli BL21(DE3); 131 residues, 14 kDa; homodimer, sugar site at protomer interface
T2 sequence (C0HM62 1-131): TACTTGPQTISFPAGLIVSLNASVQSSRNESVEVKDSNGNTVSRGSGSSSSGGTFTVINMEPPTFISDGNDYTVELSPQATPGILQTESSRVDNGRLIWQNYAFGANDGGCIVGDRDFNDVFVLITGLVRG
As to the kind of experiment: inhibition of rThC-induced Ba/F3-HuMpl cell proliferation. The class given is cell-based. Particulars: rThC 1 μg/mL, RPMI-1640 with 10% FBS, 37 °C, 4 days; competes with MPL glycan.

Assay [3] has as its target T2, rThC (recombinant thrombocorticin, ThC). Kind of assay: isothermal titration calorimetry. Particulars: 5 mM CaCl2, 20 mM HEPES-NaOH pH 8.0, 200 mM NaCl, 25 °C; Ca2+-mediated site at dimer interface. Format: binding.
The target in assay [4] is T3, human thrombopoietin receptor MPL on Ba/F3-HuMpl cells (human, UniProt P40238 26-635).
T3 sequence (looked up): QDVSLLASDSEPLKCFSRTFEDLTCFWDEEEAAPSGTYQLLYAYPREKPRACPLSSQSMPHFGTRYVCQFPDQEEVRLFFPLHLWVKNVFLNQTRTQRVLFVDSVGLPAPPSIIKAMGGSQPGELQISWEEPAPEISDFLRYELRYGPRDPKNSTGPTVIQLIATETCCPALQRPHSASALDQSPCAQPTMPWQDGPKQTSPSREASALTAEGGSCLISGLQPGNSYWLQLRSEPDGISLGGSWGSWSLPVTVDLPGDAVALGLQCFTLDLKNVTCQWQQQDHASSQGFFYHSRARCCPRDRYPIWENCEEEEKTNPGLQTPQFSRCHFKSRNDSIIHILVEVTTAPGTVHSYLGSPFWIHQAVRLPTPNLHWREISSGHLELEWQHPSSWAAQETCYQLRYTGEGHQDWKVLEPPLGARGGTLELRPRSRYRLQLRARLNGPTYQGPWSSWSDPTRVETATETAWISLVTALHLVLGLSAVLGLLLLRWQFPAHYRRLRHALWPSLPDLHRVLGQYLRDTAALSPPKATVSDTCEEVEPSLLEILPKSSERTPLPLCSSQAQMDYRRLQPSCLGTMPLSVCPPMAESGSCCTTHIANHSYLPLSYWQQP
As to the kind of experiment: cell-based or functional assay.

In assay [1], “PA-IIL (from UniProt Q9HYN5 1-115) (natural protein)” gave a proliferation of Ba/F3-HuMpl cells, EC50 of 18.1 µg/mL.

The molecule `OC[C@H]1OC(O)[C@@H](O)[C@@H](O)[C@@H]1O` (stereo partly drawn) [D-mannose] displayed a Kd on BC2L-C-CTD of 17.7 ± 0.32 µM. Further, the IC50 in assay [2] is 6.46 mM. Also, the KD in assay [3] was 66.2 × 10 µM.

In the case of `C[C@@H]1OC(O)[C@@H](O)[C@H](O)[C@@H]1O` (stereo partly drawn) [L-fucose], the IC50 in assay [2] came to 0.0228 mM. Further, the Kd in assay [3] was 4.72 µM.

B1: N-terminal His-tagged recombinant thrombocorticin (wild type) (natural protein, UniProt C0HM62 1-131, looked up)
chain: T2 sequence (C0HM62 1-131)
In the case of B1, the “proliferation of Ba/F3-HuMpl cells, EC50” value in assay [4] was determined as 0.26 µg/mL.
